Values joined by “and” are separate entries in the source; they are usually repeats but may differ in a detail not shown here. Equal values may be shown once. Inconclusive results and toxic doses are left out. Peptide text beside a SMILES is read from it. * marks the point of attachment. Bn = c1ccc(C*)cc1

Data on 27 molecules can be found in PubChem BioAssay AID192 (DTP/NCI, 2004).

The test deals with BDF1 mice, B16 melanoma ip, median survival T/C. Put plainly: NCI In Vivo Anticancer Drug Screen. Data for tumor model B16 Melanoma (intraperitoneal) in B6D2F1 (BDF1) mice. The settings on record: endpoint: median survival time, higher = longer survival. The procedure, abridged:
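Tumor-bearing mice received test compound or vehicle. Survival or tumor size was then measured in both groups. The treated-group figure was divided by the control-group figure.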

[1] abbreviates: dose: 100.0 mg/kg/injection, schedule: Q01DX009 (ip), vehicle: saline with Tween-80.
[2] abbreviates: dose: 200.0 mg/kg/injection, schedule: Q01DX009 (ip), vehicle: saline with Tween-80.
Where [3] appears, read: dose: 400.0 mg/kg/injection, schedule: Q01DX009 (ip), vehicle: saline with Tween-80.
Where [4] appears, read: dose: 12.5 mg/kg/injection, schedule: Q01DX009 (ip), vehicle: saline.
[5] abbreviates: dose: 25.0 mg/kg/injection, schedule: Q01DX009 (ip), vehicle: saline.
[6] abbreviates: dose: 50.0 mg/kg/injection, schedule: Q01DX009 (ip), vehicle: saline.
Setting [7] is: dose: 100.0 mg/kg/injection, schedule: Q01DX009 (ip), vehicle: saline.
Setting [8] is: dose: 50.0 mg/kg/injection, schedule: Q01DX009 (ip), vehicle: Klucel (hydroxypropylcellulose) (HPC).
Setting [9] is: dose: 100.0 mg/kg/injection, schedule: Q01DX009 (ip), vehicle: Klucel (hydroxypropylcellulose) (HPC).
Setting [10] is: dose: 5.0 mg/kg/injection, schedule: Q01DX009 (ip), vehicle: saline with Tween-80.
Where [11] appears, read: dose: 12.5 mg/kg/injection, schedule: Q01DX009 (ip), vehicle: saline with Tween-80.
The mark [12] stands for this setting: dose: 25.0 mg/kg/injection, schedule: Q01DX009 (ip), vehicle: saline with Tween-80.
Where [13] appears, read: dose: 50.0 mg/kg/injection, schedule: Q01DX009 (ip), vehicle: saline with Tween-80.
The mark [14] stands for this setting: dose: 25.0 mg/kg/injection, schedule: Q01DX009 (ip), vehicle: Klucel (hydroxypropylcellulose) (HPC).
Setting [15] is: dose: 400.0 mg/kg/injection, schedule: Q01DX009 (ip), vehicle: Klucel (hydroxypropylcellulose) (HPC).
[16] abbreviates: dose: 200.0 mg/kg/injection, schedule: Q01DX009 (ip), vehicle: Klucel (hydroxypropylcellulose) (HPC).
Where [17] appears, read: dose: 12.5 mg/kg/injection, schedule: Q01DX009 (ip), vehicle: Klucel (hydroxypropylcellulose) (HPC).

`Cc1ccc([I+]c2ccc(C)cc2C)c(C)c1`: the T/C (dose: 0.18 mg/kg/injection, schedule: Q01DX009 (ip), vehicle: Klucel (hydroxypropylcellulose) (HPC)) is 114 % of control; the T/C (dose: 0.37 mg/kg/injection, schedule: Q01DX009 (ip), vehicle: Klucel (hydroxypropylcellulose) (HPC)) is 92 % of control; the T/C (dose: 0.75 mg/kg/injection, schedule: Q01DX009 (ip), vehicle: Klucel (hydroxypropylcellulose) (HPC)) is 87 % of control; the T/C (dose: 6.0 mg/kg/injection, schedule: Q01DX009 (ip), vehicle: Klucel (hydroxypropylcellulose) (HPC)) is 90 % of control.

Turning to `NNC(=O)CCC(=O)NN`, the T/C is, setting by setting: under setting [1], 102 % of control; under setting [2], 104 % of control; under setting [3], 93 % of control.

As for `C(=C\c1cccnc1)/c1ccncc1`, the T/C runs as follows: (dose: 66.0 mg/kg/injection, schedule: Q01DX009 (ip), vehicle: saline with Tween-80) 96 % of control; under setting [1], 93 % of control.

Consider `Cc1cc(C)c(OCC(O)CO)c(C)c1` (stereo not drawn), for which the T/C was 104 % of control under setting [1] and 93 % of control under setting [2].

As to `O=C(Nc1ccc(Cl)cc1)OCCN1CCOCC1`, the T/C by setting is: under setting [1], 110 % of control; under setting [2], 110 % of control; under setting [3], 97 % of control.

In the case of `CCCC(=O)O`, the T/C is, setting by setting: under setting [4], 106 % of control; under setting [5], 101 % of control; under setting [6], 92 % of control; under setting [7], 106 % of control.

Consider `O=C(O)c1c(O)c(-c2ccccc2)nc2ccccc12`, for which the T/C is 103 % of control under setting [8] and 103 % of control under setting [9].

`Cc1ccc([NH-])c([NH-])c1.[Cl][Pt+2][Cl]`: the T/C by setting is: (dose: 1.25 mg/kg/injection, schedule: Q01DX009 (ip), vehicle: saline with Tween-80) 120 % of control; under setting [10], 161 % of control.

As for `Cc1ccccc1C(=O)NCC(=O)O`, the T/C is, setting by setting: under setting [1], 107 % of control; under setting [2], 99 % of control; under setting [3], 95 % of control.

Take `COc1cc(C(C)(C)C)cc(OC)c1C(O)(c1c(OC)cc(C(C)(C)C)cc1OC)c1c(OC)cc(C(C)(C)C)cc1OC`: the T/C reads like this: (dose: 6.25 mg/kg/injection, schedule: Q01DX009 (ip), vehicle: saline with Tween-80) 102 % of control; under setting [11], 116 % of control; under setting [12], 109 % of control; under setting [13], 121 % of control; under setting [1], 109 % of control.

With `Cc1cccc(C)c1NS(=O)(=O)c1ccc(Cl)cc1`, the T/C is, setting by setting: under setting [14], 99 % of control; under setting [8], 97 % of control; under setting [9], 99 % of control and 104 % of control; under setting [15], 116 % of control.

Regarding `Nc1c(S(=O)(=O)O)cc(Nc2ccccc2)c2c1C(=O)c1ccccc1C2=O`, the T/C under setting [5] was 121 % of control, the T/C under setting [6] is 115 % of control and the T/C under setting [7] is 115 % of control.

As for `CCCCCCCCCCCCNC(=O)Nc1cccc(C)c1C`, the T/C runs as follows: under setting [9], 100 % of control; under setting [16], 100 % of control; under setting [15], 96 % of control.

For the molecule `Cc1c2oc3c(C)ccc(C(=O)NCCN4CCCCC4)c3nc-2c(C(=O)NCCN2CCCCC2)c(N)c1=O`, the T/C runs as follows: under setting [17], 97 % of control; under setting [14], 112 % of control.

As for `COC1=C2CC(C)CC(OC)C(O)C(C)/C=C(\C)C(OC(N)=O)C(OC)/C=C\C=C(/C)C(=O)NC(=C(/C=N/N(C)C)C1=O)C2=O` (stereo not drawn), the T/C (dose: 12.5 mg/kg/injection, schedule: Q01DX005 (ip), vehicle: other) was 101 % of control; the T/C (dose: 25.0 mg/kg/injection, schedule: Q01DX005 (ip), vehicle: other) was 101 % of control; the T/C (dose: 50.0 mg/kg/injection, schedule: Q01DX005 (ip), vehicle: other) is 101 % of control; the T/C (dose: 100.0 mg/kg/injection, schedule: Q01DX005 (ip), vehicle: other) was 97 % of control; the T/C (dose: 200.0 mg/kg/injection, schedule: Q01DX005 (ip), vehicle: other) is 96 % of control.

For the molecule `CC(CN=Cc1ccccc1[O-])N=Cc1ccccc1[O-].[O]=[V]` (stereo not drawn), the T/C (dose: 2.5 mg/kg/injection, schedule: Q01DX009 (ip), vehicle: saline with Tween-80) was 90 % of control; the T/C under setting [10] is 90 % of control; the T/C (dose: 5.0 mg/kg/injection, schedule: Q04DX003 (ip), vehicle: saline with Tween-80) is 97 % of control; the T/C (dose: 10.0 mg/kg/injection, schedule: Q04DX003 (ip), vehicle: saline with Tween-80) is 92 % of control.

`CN1CCN(CCNc2ccc(CO)c3sc4ccccc4c(=O)c23)CC1`: the T/C under setting [14] is 110 % of control and the T/C under setting [8] is 116 % of control.

As for `CCCCNC(C)(C)C(SSC(c1ccc(Cl)cc1)C(C)(C)NCCCC)c1ccc(Cl)cc1` (stereo not drawn), the T/C was 109 % of control (dose: 6.25 mg/kg/injection, schedule: Q01DX009 (ip), vehicle: saline); 97 % of control under setting [4]; 88 % of control under setting [5].

`Cc1c2ccc3ccccc3c2c[n+]2ccccc12`: the T/C by setting is: (dose: 1.25 mg/kg/injection, schedule: Q01DX009 (ip), vehicle: Klucel (hydroxypropylcellulose) (HPC)) 98 % of control; (dose: 2.5 mg/kg/injection, schedule: Q01DX009 (ip), vehicle: Klucel (hydroxypropylcellulose) (HPC)) 98 % of control; (dose: 5.0 mg/kg/injection, schedule: Q01DX009 (ip), vehicle: Klucel (hydroxypropylcellulose) (HPC)) 111 % of control; (dose: 10.0 mg/kg/injection, schedule: Q01DX009 (ip), vehicle: Klucel (hydroxypropylcellulose) (HPC)) 108 % of control; (dose: 20.0 mg/kg/injection, schedule: Q01DX009 (ip), vehicle: Klucel (hydroxypropylcellulose) (HPC)) 102 % of control.

For `Cc1ccc(Cl)cc1NC(=O)c1ccc([N+](=O)[O-])cc1`, the T/C is 112 % of control under setting [12], 110 % of control under setting [13] and 96 % of control under setting [1].

Take `CCOC(=O)C(=Cc1ccc(Cl)cc1)C(=O)OCC`: the T/C is 94 % of control under setting [17], 94 % of control under setting [8] and 89 % of control under setting [9].

Consider `CCCCC(SC(CC)(C(C)=O)c1ccccc1)C(N)=O` (stereo not drawn), for which the T/C under setting [13] is 89 % of control, the T/C under setting [1] was 108 % of control, the T/C under setting [2] is 87 % of control and the T/C under setting [3] is 92 % of control.

Regarding `COC(=O)C(CC(C)C)NC(=O)C(N)Cc1ccc(OCc2ccccc2)cc1` (stereo not drawn) (H-Tyr(Bn)-Leu-OMe; configuration not given here), the T/C reads like this: under setting [17], 110 % of control; under setting [14], 96 % of control.

In the case of `COc1ccc(/C=C2\CCC3C(=O)CCCC3(C)C2=O)cc1` (stereo not drawn), the T/C is 94 % of control (dose: 100.0 mg/kg/injection, schedule: Q04DX003 (ip), vehicle: Klucel (hydroxypropylcellulose) (HPC)); 92 % of control (dose: 200.0 mg/kg/injection, schedule: Q04DX003 (ip), vehicle: Klucel (hydroxypropylcellulose) (HPC)); 89 % of control (dose: 400.0 mg/kg/injection, schedule: Q04DX003 (ip), vehicle: Klucel (hydroxypropylcellulose) (HPC)).

In the case of `Nc1ccc(-c2ccc3ccccc3n2)cc1`, the T/C (dose: 6.25 mg/kg/injection, schedule: Q01DX009 (ip), vehicle: Klucel (hydroxypropylcellulose) (HPC)) is 111 % of control; the T/C under setting [17] is 104 % of control; the T/C under setting [14] was 91 % of control.

For the molecule `CC1CCN(c2ccc([N+](=O)[O-])cc2[N+](=O)[O-])CC1`, the T/C was 100 % of control under setting [8], 100 % of control under setting [9] and 112 % of control under setting [16].

With `CC(=O)Nc1ccc(S(=O)(=O)CO)cc1`, the T/C is 97 % of control and 110 % of control under setting [11]; 100 % of control and 114 % of control under setting [12]; 95 % of control and 96 % of control under setting [13]; 92 % of control and 115 % of control under setting [1]; 90 % of control and 110 % of control under setting [2]; 89 % of control and 99 % of control under setting [3].
